Results taken from US11192888B2, “Antibacterial compounds” (priority 2017, dated 2021).
≈ marks a conversion by molar mass, not a printed value.

Key:
[1] = tested on: Clostridium perfringens NCTC 8237; assay: microbe, parasite or virus in culture
[2] = tested on: Bifidobacterium breve ATCC 15700; assay: microbe, parasite or virus in culture; details: ATCC15700
[3] = tested on: Actinomyces viscosus DSM 43327; assay: microbe, parasite or virus in culture; details: DSM43327
[4] = tested on: Clostridium innocuum DSM 1286; assay: microbe, parasite or virus in culture; details: DSM1286
[5] = tested on: Bacteroides fragilis ATCC 25285; assay: microbe, parasite or virus in culture; details: ATCC25285
[6] = tested on: Clostridium ramosum DSM 1402; assay: microbe, parasite or virus in culture; details: Thomasclavelia ramosa, DSM1402
[7] = tested on: Propionibacterium acnes ATCC 6919; assay: microbe, parasite or virus in culture; details: Cutibacterium acnes, ATCC6919
[8] = tested on: Bifidobacterium bifidum ATCC 11863; assay: microbe, parasite or virus in culture; details: ATCC11863
[9] = tested on: Clostridium sordellii ATCC 9714; assay: CLSI MIC, representative gut bacteria; assay type: cell-based; details: Paraclostridium sordellii, ATCC9714, read-out: MIC
Method: (§1) Comparative in vitro bacterial susceptibility to compounds 3, 9 and 10, vancomycin and metronidazole was determined using methods according to the Clinical and Laboratory Standard Institute (CLSI) approved guidelines (M7-A10, M11-A7 or M45-A2) for anaerobic and aerobic organisms.

[10] = tested on: Clostridium difficile ATCC 43255; assay: CLSI MIC, representative gut bacteria; assay type: cell-based; details: Clostridioides difficile, ATCC43255; Clostridium difficile ATCC 43255; read-out: MIC
Method: as §1

With `Cc1ncc([N+](=O)[O-])n1CCO` [Metronidazole] as the compound, how does the MIC [1] read?
Its MIC is 1 µg/mL (≈ 5.84 µM).

And the MIC [2]?
Its MIC is 4 µg/mL (≈ 23.4 µM).

What about the MIC [3] of the same compound?
The MIC was 2 µg/mL (≈ 11.7 µM).

What about the MIC [4] of the same compound?
Its MIC is 0.5 µg/mL (≈ 2.92 µM).

And the MIC [5]?
The MIC was 0.5 µg/mL (≈ 2.92 µM).

And the MIC [6]?
Its MIC is 4 µg/mL (≈ 23.4 µM).

And the MIC [7]?
The MIC was greater than 64 µg/mL.

And the MIC [8]?
The MIC was 2 µg/mL (≈ 11.7 µM).

What about the MIC [9] of the same compound?
Its MIC is 1 µg/mL (≈ 5.84 µM).

What about the MIC [10] of the same compound?
Its MIC is 0.5 µg/mL (≈ 2.92 µM).
